Measurements taken from patent US10335409B2 (priority 2012, dated 2019).

Assays:
[1] = target: HCV NS3 protease domain genotype 3a (Hepatitis C virus genotype 3a, UniProt Q81258); test: Ki determination, NS3 protease genotype 3a (fluorogenic depsipeptide substrate); assay type: biochemical; details: 200 pM enzyme, NS4A peptide
Text: Purified NS3 protease domain (amino acids 1-181) of the genotype 1b and 3a virus were generated as above. The internally quenched fluorogenic depsipeptide substrate Ac-DED(Edans)-EEAbuΨ[COO]ASK(Dabcyl)-NH2 and a synthetic peptide containing the hydrophobic core residues of the NS4A protein cofactor ([…]; NS4A peptide) were obtained from Anaspec, Inc. (San Jose, Calif.). Other chemicals and biochemicals were of reagent grade or better and were purchased from standard suppliers.
Reactions were run at room temperature in buffer consisting of 50 mM HEPES, 40% glycerol, 0.05% Triton X-100, 10 mM DTT, and 10% DMSO. The final assay solutions contained 50 pM NS3 genotype 1 b protease or 200 pM genotype 3a protease, 20 μM NS4A peptide, and 4 μM substrate (genotype 1b) or 2 μM substrate (genotype 3a). Inhibitor concentrations varied from 100 nM to 5 pM in 3-fold dilutions, and no-inhibitor controls were included.
Compound dilutions were made in DMSO at 20× final concentration. Reaction mixtures were prepared in 96-well assay plates. A solution of enzyme and NS4A peptide in assay buffer (25 μL volume with both reagents at 4× final concentration) was mixed with 45 μL assay buffer and 5 μL of either inhibitor or DMSO, and pre-incubated at room temperature for 1 hour. The reaction was started by addition of 25 μL substrate solution at 4× final concentration. Plates were mixed vigorously for 5-10 seconds and reactions were allowed to proceed for 90 minutes, fluorescence was measured every 30 s between 90 and 120 minutes reaction time using a Tecan InfiniTe M1000 or PerkinElmer Envision multimode plate reader with an excitation wavelength of 340 nm and an emission wavelength of 490 nm.
Rates were calculated from the progress curves at steady state, in the time frame of 90-120 minutes after addition of substrate. To determine the Ki, rates were plotted as a function of inhibitor concentration, and the data were fit with equation 1 (Morrison, J. F., Biochimica et Biophysica Acta 1969, 185, 269-286) to calculate Ki^app using GraphPad Prism 5. Active fraction of enzyme was determined by active site titration with known potent inhibitors. Ki was calculated from Ki^app/(1+[[S]/Km]).

[2] = tested on: genotype 1a (H77) stable HCV replicon in Huh-7-derived cells; test: Stable subgenomic HCV replicon EC50, genotype 1a (Renilla luciferase); assay type: cell-based, hepatitis C virus; details: Hepatitis C virus, stable replicon genotype 1a, 72 h, read-out: EC50 1A RLUC
In short: (§1)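 Compounds, three-fold diluted, were applied to Huh-7-derived cells harbouring luciferase replicons (genotype 1a H77, 1b Con1, 2a JFH-1, 4a ED43, with strain-specific adaptive mutations). Seventy-two hours later, intracellular replication was gauged by Renilla luciferase activity and EC50 derived by regression.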

[3] = tested on: genotype 1b (Con1) stable HCV replicon in Huh-7-derived cells; test: Stable subgenomic HCV replicon EC50, genotype 1b (Renilla luciferase); assay type: cell-based, hepatitis C virus; details: Hepatitis C virus, stable replicon genotype 1b, 72 h, read-out: EC50 1B RLUC
In short: as §1

[4] = tested on: genotype 2a (JFH-1) stable HCV replicon in Huh-7-derived cells; test: Stable subgenomic HCV replicon EC50, genotype 2a (Renilla luciferase); assay type: cell-based, hepatitis C virus; details: Hepatitis C virus, stable replicon genotype 2a, 72 h, read-out: EC50 2A RLUC
In short: as §1

[5] = tested on: genotype 3a (S52) stable HCV replicon in Huh-7-derived cells; test: Stable subgenomic HCV replicon EC50, genotype 3a (Renilla luciferase); assay type: cell-based, hepatitis C virus; details: Hepatitis C virus, 72 h, read-out: EC50 3A RLUC
[6] = tested on: genotype 4a (ED43) stable HCV replicon in Huh-7-derived cells; test: Stable subgenomic HCV replicon EC50, genotype 4a (Renilla luciferase); assay type: cell-based, hepatitis C virus; details: Hepatitis C virus, 72 h, read-out: EC50 4A RLUC
In short: as §1

[7] = tested on: genotype 3a (S52) wild type transient HCV replicon in Huh-7-derived cells; test: Transient-transfected HCV replicon EC50, genotype 3a wild type; assay type: cell-based, hepatitis C virus; details: Hepatitis C virus; transient-transfected replicon genotype 3a wild type, 72 h; read-out: EC50 3A WT
[8] = tested on: genotype 1a (H77) wild type transient HCV replicon in Huh-7-derived cells; test: Transient-transfected HCV replicon EC50, genotype 1a wild type; assay type: cell-based, hepatitis C virus; details: Hepatitis C virus, 72 h, transient-transfected replicon genotype 1a wild type, read-out: EC50 1A WT
[9] = tested on: genotype 1a NS3/4a protease inhibitor resistant variant R155K transient HCV replicon in Huh-7-derived cells; test: Transient-transfected HCV replicon EC50, genotype 1a R155K; assay type: cell-based, hepatitis C virus; details: Hepatitis C virus, 72 h, read-out: EC50 1A R155K, transient-transfected replicon genotype 1a R155K resistant variant, 72 h
[10] = tested on: genotype 1b (Con1) wild type transient HCV replicon in Huh-7-derived cells; test: Transient-transfected HCV replicon EC50, genotype 1b wild type; assay type: cell-based, hepatitis C virus; details: Hepatitis C virus, 72 h, transient-transfected replicon genotype 1b wild type, read-out: EC50 1B WT
[11] = tested on: genotype 1b NS3/4a protease inhibitor resistant variant D168A transient HCV replicon in Huh-7-derived cells; test: Transient-transfected HCV replicon EC50, genotype 1b D168A; assay type: cell-based, hepatitis C virus; details: Hepatitis C virus, 72 h, read-out: EC50 1B D168A, transient-transfected replicon genotype 1b D168A resistant variant, 72 h

Sequence of HCV NS3 protease domain genotype 3a (Q81258 whole entry, looked up, the tested form may be a part): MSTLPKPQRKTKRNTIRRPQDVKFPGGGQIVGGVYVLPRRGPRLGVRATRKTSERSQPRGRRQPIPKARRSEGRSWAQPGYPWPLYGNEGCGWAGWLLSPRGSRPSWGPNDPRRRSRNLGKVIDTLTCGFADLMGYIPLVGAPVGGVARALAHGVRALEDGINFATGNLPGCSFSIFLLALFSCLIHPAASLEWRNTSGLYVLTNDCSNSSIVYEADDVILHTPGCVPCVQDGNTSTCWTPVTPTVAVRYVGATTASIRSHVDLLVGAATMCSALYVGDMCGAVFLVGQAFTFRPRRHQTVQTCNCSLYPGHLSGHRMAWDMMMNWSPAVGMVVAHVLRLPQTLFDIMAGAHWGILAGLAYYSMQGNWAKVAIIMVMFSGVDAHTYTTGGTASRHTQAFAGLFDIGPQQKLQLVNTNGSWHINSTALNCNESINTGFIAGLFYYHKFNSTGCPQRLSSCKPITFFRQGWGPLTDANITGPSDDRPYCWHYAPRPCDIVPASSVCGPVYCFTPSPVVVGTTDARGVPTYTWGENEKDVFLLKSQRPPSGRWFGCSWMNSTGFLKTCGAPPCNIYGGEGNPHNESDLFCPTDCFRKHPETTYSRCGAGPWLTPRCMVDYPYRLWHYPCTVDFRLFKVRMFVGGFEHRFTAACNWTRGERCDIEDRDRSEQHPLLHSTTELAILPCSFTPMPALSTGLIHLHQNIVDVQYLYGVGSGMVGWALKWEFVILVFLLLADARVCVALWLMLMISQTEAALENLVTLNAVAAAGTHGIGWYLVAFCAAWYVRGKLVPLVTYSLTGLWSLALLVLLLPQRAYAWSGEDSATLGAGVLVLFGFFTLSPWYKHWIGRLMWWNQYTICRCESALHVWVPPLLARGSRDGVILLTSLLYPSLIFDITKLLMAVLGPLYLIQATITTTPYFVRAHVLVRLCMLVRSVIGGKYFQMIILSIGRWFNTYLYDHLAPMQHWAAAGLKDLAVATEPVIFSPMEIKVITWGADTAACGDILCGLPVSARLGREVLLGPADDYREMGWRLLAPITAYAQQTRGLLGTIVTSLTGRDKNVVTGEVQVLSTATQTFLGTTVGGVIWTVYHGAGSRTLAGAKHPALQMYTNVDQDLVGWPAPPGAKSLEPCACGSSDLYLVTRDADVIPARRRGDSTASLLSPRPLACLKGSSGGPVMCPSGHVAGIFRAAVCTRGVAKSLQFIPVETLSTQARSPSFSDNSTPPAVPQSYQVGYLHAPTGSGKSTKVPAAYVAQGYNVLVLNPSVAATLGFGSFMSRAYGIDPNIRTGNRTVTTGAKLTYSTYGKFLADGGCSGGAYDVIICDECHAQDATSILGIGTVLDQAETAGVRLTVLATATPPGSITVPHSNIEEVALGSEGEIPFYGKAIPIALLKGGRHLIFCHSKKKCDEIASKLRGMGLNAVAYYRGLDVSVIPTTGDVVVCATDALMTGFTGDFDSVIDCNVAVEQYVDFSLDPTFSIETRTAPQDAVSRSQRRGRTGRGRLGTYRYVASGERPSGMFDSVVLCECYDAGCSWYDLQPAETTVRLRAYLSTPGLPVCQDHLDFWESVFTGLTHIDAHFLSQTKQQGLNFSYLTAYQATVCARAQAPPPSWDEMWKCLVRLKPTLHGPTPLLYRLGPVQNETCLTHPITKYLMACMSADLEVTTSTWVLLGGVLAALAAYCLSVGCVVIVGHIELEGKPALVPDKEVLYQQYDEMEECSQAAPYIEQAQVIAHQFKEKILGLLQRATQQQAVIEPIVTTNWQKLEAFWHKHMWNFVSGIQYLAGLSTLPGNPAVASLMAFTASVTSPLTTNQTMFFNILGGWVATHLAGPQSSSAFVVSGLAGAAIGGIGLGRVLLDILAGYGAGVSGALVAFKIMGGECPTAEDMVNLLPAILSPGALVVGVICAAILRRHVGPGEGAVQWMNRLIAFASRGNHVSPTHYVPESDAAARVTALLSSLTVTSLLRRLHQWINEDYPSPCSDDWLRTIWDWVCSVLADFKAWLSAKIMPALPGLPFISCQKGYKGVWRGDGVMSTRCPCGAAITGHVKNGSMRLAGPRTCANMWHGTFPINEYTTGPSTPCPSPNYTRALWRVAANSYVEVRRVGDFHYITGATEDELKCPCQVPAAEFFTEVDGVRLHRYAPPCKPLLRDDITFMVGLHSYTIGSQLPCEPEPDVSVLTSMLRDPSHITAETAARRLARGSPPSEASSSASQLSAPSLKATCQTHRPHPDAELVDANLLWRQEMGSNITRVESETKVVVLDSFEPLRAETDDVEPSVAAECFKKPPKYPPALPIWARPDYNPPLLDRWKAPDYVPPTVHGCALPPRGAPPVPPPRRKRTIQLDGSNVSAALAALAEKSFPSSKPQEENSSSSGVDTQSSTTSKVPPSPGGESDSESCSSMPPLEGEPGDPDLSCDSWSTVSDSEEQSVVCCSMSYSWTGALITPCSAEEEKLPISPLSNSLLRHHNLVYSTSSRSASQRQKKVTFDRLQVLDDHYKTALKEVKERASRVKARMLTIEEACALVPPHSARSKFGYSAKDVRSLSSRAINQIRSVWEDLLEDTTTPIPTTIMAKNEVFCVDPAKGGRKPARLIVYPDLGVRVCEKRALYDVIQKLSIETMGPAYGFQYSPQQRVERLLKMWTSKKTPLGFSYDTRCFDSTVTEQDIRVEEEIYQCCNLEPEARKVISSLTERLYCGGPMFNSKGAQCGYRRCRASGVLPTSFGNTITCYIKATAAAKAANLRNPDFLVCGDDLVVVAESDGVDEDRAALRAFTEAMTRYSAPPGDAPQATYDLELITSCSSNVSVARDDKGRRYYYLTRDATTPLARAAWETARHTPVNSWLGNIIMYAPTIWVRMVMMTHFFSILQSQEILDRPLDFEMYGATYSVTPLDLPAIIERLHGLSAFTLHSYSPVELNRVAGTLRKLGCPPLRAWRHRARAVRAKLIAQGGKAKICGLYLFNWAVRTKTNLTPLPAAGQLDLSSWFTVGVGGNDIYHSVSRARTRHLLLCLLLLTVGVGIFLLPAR

Row | SMILES | Ki [1] [nM] | EC50 [2] [nM] | EC50 [3] [nM] | EC50 [4] [nM] | EC50 [5] [nM] | EC50 [6] [nM] | EC50 [7] [nM] | EC50 [8] [nM] | EC50 [9] [nM] | EC50 [10] [nM] | EC50 [11] [nM]
1 | CC[C@@H]1[C@@H]2CN(C(=O)[C@H](C(C)(C)C)NC(=O)O[C@@H]3C[C@H]3CCCCCc3nc4ccc(OC)cc4nc3O2)[C@@H]1C(=O)N[C@]1(C(=O)NS(=O)(=O)C2(C)CC2)C[C@H]1C(F)F [Example 1, (1aR,5S,8S,9S,10R,22aR)-5-tert-butyl-N-[(1R,2R)-2-(difluoromethyl)-1-{[(1-methylcyclopropyl)sulfonyl]carbamoyl}cyclopropyl]-9-ethyl-14-methoxy-3,6-dioxo-1,1a,3,4,5,6,9,10,18,19,20,21,22,22a-tetradecahydro-8H-7,10-methanocyclopropa[18,19][1,10,3,6]dioxadiazacyclononadecino[11,12-b]quinoxaline-8-carboxamide] | 0.07 | 4.4 | 3.9 | 4.1 | 46 | 3.1 | 17 | 3.2 | 4.9 | 2.2 | 17
2 | CC[C@@H]1[C@@H]2CN(C(=O)[C@H](C(C)(C)C)NC(=O)O[C@]3(C)C[C@H]3CCCCCc3nc4ccc(OC)cc4nc3O2)[C@@H]1C(=O)N[C@]1(C(=O)NS(=O)(=O)C2(C)CC2)C[C@H]1C(F)F [Example 7, (1aR,5S,8S,9S,10R,22aR)-5-tert-butyl-N-[(1R,2R)-2-(difluoromethyl)-1-{[(1-methylcyclopropyl)sulfonyl]carbamoyl}cyclopropyl]-9-ethyl-14-methoxy-1a-methyl-3,6-dioxo-1,1a,3,4,5,6,9,10,18,19,20,21,22,22a-tetradecahydro-8H-7,10-methanocyclopropa[18,19][1,10,3,6] dioxadiazacyclononadecino[11,12-b]quinoxaline-8-carboxamide] | 0.06 | 4.9 | 3.8 | 4.2 | 67 | 3.2 | 14 | 3.8 | 6.7 | 2.3 | 20
3 | CC[C@@H]1[C@@H]2CN(C(=O)[C@H](C(C)(C)C)NC(=O)O[C@@H]3C[C@H]3CCCCC(F)(F)c3nc4ccc(OC)cc4nc3O2)[C@@H]1C(=O)N[C@]1(C(=O)NS(=O)(=O)C2(C)CC2)C[C@H]1C(F)F [Example 17, (1aR,5S,8S,9S,10R,22aR)-5-tert-butyl-N-[(1R,2R)-2-(difluoromethyl)-1-{[(1-methylcyclopropyl)sulfonyl]carbamoyl}cyclopropyl]-9-ethyl-18,18-difluoro-14-methoxy-3,6-dioxo-1,1a,3,4,5,6,9,10,18,19,20,21,22,22a-tetradecahydro-8H-7,10-methanocyclopropa[18,19][1,10,3,6]dioxadiazacyclononadecino[11,12-b]quinoxaline-8-carboxamide] | 0.06 | 3.9 | 3.3 | 3.7 | 15 | 2.9 | 6.1 | 2.9 | 2.8 | 1.7 | 4.3
4 | CC[C@@H]1[C@@H]2CN(C(=O)[C@H](C(C)(C)C)NC(=O)O[C@@H]3C[C@H]3CCCC3CC3c3nc4ccc(OC)cc4nc3O2)[C@@H]1C(=O)N[C@]1(C(=O)NS(=O)(=O)C2(C)CC2)C[C@H]1C(F)F (stereo partly drawn) [Example 36, (1aR,5S,8S,9S,10R,21aR)-5-tert-butyl-N-[(1R,2R)-2-(difluoromethyl)-1-{[(1-methylcyclopropyl)sulfonyl]carbamoyl}cyclopropyl]-9-ethyl-14-methoxy-3,6-dioxo-1a,3,4,5,6,9,10,17b,18,18a, 19,20,21,21a-tetradecahydro-1H,8H-7,10-methanodicyclopropa[13,14:18,19][1,10,3,6]dioxadiazacyclononadecino[11,12-b]quinoxaline-8-carboxamide] | 1.7 | 23 | 14 | 53 | 585 | 9.1 | 128 | 16 | 271 | 9.4 | 333
5 | CC[C@@H]1[C@@H]2CN(C(=O)[C@H](C(C)(C)C)NC(=O)O[C@]3(C)CCC[C@H]3CCCCCc3nc4ccc(OC)cc4nc3O2)[C@@H]1C(=O)N[C@]1(C(=O)NS(=O)(=O)C2(C)CC2)C[C@H]1C(F)F [Example 39] | 0.2 | 34 | 39 | 41 | 321 | 26 | 89 | 23 | 63 | 16 | 105
6 | CC[C@]12C[C@@H]1CCCCCc1nc3ccc(OC)cc3nc1O[C@H]1CN(C(=O)[C@H](C(C)(C)C)NC(=O)O2)[C@H](C(=O)N[C@]2(C(=O)NS(=O)(=O)C3(C)CC3)C[C@H]2C(F)F)[C@@H]1C [Example 42, (1aS,5S,8S,9S,10R,22aS)-5-tert-butyl-N-[(1R,2R)-2-(difluoromethyl)-1-{[(1-methylcyclopropyl)sulfonyl]carbamoyl}cyclopropyl]-1a-ethyl-14-methoxy-9-methyl-3,6-dioxo-1,1a,3,4,5,6,9,10,18,19,20,21,22,22a-tetradecahydro-8H-7,10-methanocyclopropa[18,19][1,10,3,6]dioxadiazacyclononadecino[11,12-b]quinoxaline-8-carboxamide] | 0.75 | 20 | 16 | 17 | 343 | 14 | – | 17 | 35 | 10 | 109
7 | CC[C@@]12C[C@H]1CCCCCc1nc3ccc(OC)cc3nc1O[C@H]1CN(C(=O)[C@H](C(C)(C)C)NC(=O)O2)[C@H](C(=O)N[C@]2(C(=O)NS(=O)(=O)C3(C)CC3)C[C@H]2C(F)F)[C@@H]1C [Example 43, (1aR,5S,8S,9S,10R,22aR)-5-tert-butyl-N-[(1R,2R)-2-(difluoromethyl)-1-{[(1-methylcyclopropyl)sulfonyl]carbamoyl}cyclopropyl]-1a-ethyl-14-methoxy-9-methyl-3,6-dioxo-1,1a,3,4,5,6,9,10,18,19,20,21,22,22a-tetradecahydro-8H-7,10-methanocyclopropa[18,19][1,10,3,6]dioxadiazacyclononadecino[11,12-b]quinoxaline-8-carboxamide] | 0.16 | 4.9 | 3.8 | 5.2 | 92 | 3.6 | – | 3.8 | 8.7 | 2.4 | 41
